Test: recombinant UMI read abundance after kanamycin selection (control-corrected) (log10(CPM+1)); higher = more efficient recombination; extreme values may be limits of the assay; sequences stand for … in AGTGCAGAGAAAATCGGCCAGTTTTCTCTGCCTGCAGTCCGCATGCCGTGGGACCCCTTGGGTTCTAACCTGTTGCCTAGATTTATGCAGCGGACTGCCTTTCTCCCAAAGTGATAAACCGG…AGGTTGGTTTCACT; site = the 11-nt donor
Procedure, shortened: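 After plating on IPTG (0.07 mM) plus kanamycin, or unselected, in two replicates, recombinant UMIs were PCR-amplified across the donor–target junction and sequenced. The cells were Escherichia coli co-electroporated with a UMI-tagged donor and donor-binding-loop pair library and a target plasmid with a fixed target and T7-inducible IS621 bridge recombinase. Values are log10(CPM+1), with CPM averaged over replicates and scaled by control-derived factors.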
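Also: IS621 bridge recombinase in Escherichia coli cells against a fixed T5 target plasmid.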

Sequence | recombinant UMI read abundance (log10)
GTAGCTGCATGGACCGGTTTTCCCGGTAATCCGTATTTGTG (site CTAGCTGCTCA) | 0.54
GTAGCTGCATGGACCGGTTTTCCCGGTAATCCGTATTTGTG (site GTAGCTGCTCA) | 1.06
GTAGCTGCATGGACCGGTTTTCCCGGTAATCCGTATTTGTG (site TTAGCTGCTCA) | 0.0482
GTAGGATCATGGACCGGTTTTCCCGGTAATCCGTATTTGAC (site CTAGTATCTGT) | 0.851
GTAGGATCATGGACCGGTTTTCCCGGTAATCCGTATTTGAC (site GTAGGATCTGT) | 3.19
GTAGGCGCATGGACCGGTTTTCCCGGTAATCCGTATTTGAC (site GTAGGCGCTGT) | 1.9
GTAGGCGCATGGACCGGTTTTCCCGGTAATCCGTATTTGCG (site GTAGACGCTCG) | 2.78
GTAGGCGCATGGACCGGTTTTCCCGGTAATCCGTATTTGCG (site GTAGCCGCTCG) | 0
GTAGGCGCATGGACCGGTTTTCCCGGTAATCCGTATTTGCG (site GTAGGCGCTCG) | 1.47
GTAGGCGCATGGACCGGTTTTCCCGGTAATCCGTATTTGCG (site GTAGTCGCTCG) | 0.407
GTAGGGTCATGGACCGGTTTTCCCGGTAATCCGTATTTGTT (site GTAGGGTCTAA) | 2.38
GTAGGTACATGGACCGGTTTTCCCGGTAATCCGTATTTGGC (site GTAGGTACTGA) | 1.79
GTAGGTACATGGACCGGTTTTCCCGGTAATCCGTATTTGGC (site GTAGGTACTGC) | 2.38
GTAGGTACATGGACCGGTTTTCCCGGTAATCCGTATTTGGC (site GTAGGTACTGG) | 0.159
GTAGGTACATGGACCGGTTTTCCCGGTAATCCGTATTTGGC (site GTAGGTACTGT) | 1.53
GTAGGTACATGGACCGGTTTTCCCGGTAATCCGTATTTGTC (site GTAGGTACTGA) | 1.99
GTAGGTACATGGACCGGTTTTCCCGGTAATCCGTATTTGTC (site GTAGGTACTGC) | 0
GTAGGTACATGGACCGGTTTTCCCGGTAATCCGTATTTGTC (site GTAGGTACTGG) | 1.97
GTAGGTACATGGACCGGTTTTCCCGGTAATCCGTATTTGTC (site GTAGGTACTGT) | 1.35
GTAGTAGCATGGACCGGTTTTCCCGGTAATCCGTATTTGCG (site GTAGTAGCTCG) | 2.62
GTAGTAGCATGGACCGGTTTTCCCGGTAATCCGTATTTGCG (site GTAGTCGCTCG) | 0.72
GTAGTAGCATGGACCGGTTTTCCCGGTAATCCGTATTTGCG (site GTAGTGGCTCG) | 1.53
GTAGTAGCATGGACCGGTTTTCCCGGTAATCCGTATTTGCG (site GTAGTTGCTCG) | 1.32
GTAGTATCATGGACCGGTTTTCCCGGTAATCCGTATTTGAC (site ATAGTATCTGT) | 3.09
GTAGTATCATGGACCGGTTTTCCCGGTAATCCGTATTTGAC (site CTAGTATCTGT) | 2.47

Sequence | recombinant UMI read abundance (log10)
GTAGTATCATGGACCGGTTTTCCCGGTAATCCGTATTTGAC (site GTAGTATCTGT) | 3.41
GTAGTATCATGGACCGGTTTTCCCGGTAATCCGTATTTGAC (site TTAGTATCTGT) | 2.29
GTAGTATCATGGACCGGTTTTCCCGGTAATCCGTATTTGCC (site GTAGTATCTGG) | 2.55
GTAGTATCATGGACCGGTTTTCCCGGTAATCCGTATTTGGC (site CTAGTATCTGT) | 0.582
GTAGTATCATGGACCGGTTTTCCCGGTAATCCGTATTTGGC (site GTAGTATCTGC) | 3.51
GTAGTCGCATGGACCGGTTTTCCCGGTAATCCGTATTTGCG (site ATAGTCGCTCG) | 0.405
GTAGTCGCATGGACCGGTTTTCCCGGTAATCCGTATTTGCG (site CTAGTCGCTCG) | 0.145
GTAGTCGCATGGACCGGTTTTCCCGGTAATCCGTATTTGCG (site GAAGTCGCTCG) | 0.0146
GTAGTCGCATGGACCGGTTTTCCCGGTAATCCGTATTTGCG (site GCAGTCGCTCG) | 0.162
GTAGTCGCATGGACCGGTTTTCCCGGTAATCCGTATTTGCG (site GGAGTCGCTCG) | 0.0136
GTAGTCGCATGGACCGGTTTTCCCGGTAATCCGTATTTGCG (site GTAATCGCTCG) | 1.31
GTAGTCGCATGGACCGGTTTTCCCGGTAATCCGTATTTGCG (site GTACTCGCTCG) | 0.0126
GTAGTCGCATGGACCGGTTTTCCCGGTAATCCGTATTTGCG (site GTAGACGCTCG) | 0.714
GTAGTCGCATGGACCGGTTTTCCCGGTAATCCGTATTTGCG (site GTAGCCGCTCG) | 0.584
GTAGTCGCATGGACCGGTTTTCCCGGTAATCCGTATTTGCG (site GTAGGCGCTCG) | 0.0201
GTAGTCGCATGGACCGGTTTTCCCGGTAATCCGTATTTGCG (site GTAGTAGCTCG) | 0.489
GTAGTCGCATGGACCGGTTTTCCCGGTAATCCGTATTTGCG (site GTAGTCACTCG) | 1.24
GTAGTCGCATGGACCGGTTTTCCCGGTAATCCGTATTTGCG (site GTAGTCCCTCG) | 0.553
GTAGTCGCATGGACCGGTTTTCCCGGTAATCCGTATTTGCG (site GTAGTCGCTAG) | 1.23
GTAGTCGCATGGACCGGTTTTCCCGGTAATCCGTATTTGCG (site GTAGTCGCTCA) | 0.421
GTAGTCGCATGGACCGGTTTTCCCGGTAATCCGTATTTGCG (site GTAGTCGCTCC) | 0.0196
GTAGTCGCATGGACCGGTTTTCCCGGTAATCCGTATTTGCG (site GTAGTCGCTCG) | 1.61
GTAGTCGCATGGACCGGTTTTCCCGGTAATCCGTATTTGCG (site GTAGTCGCTCT) | 0.471
GTAGTCGCATGGACCGGTTTTCCCGGTAATCCGTATTTGCG (site GTAGTCGCTGG) | 1.34
GTAGTCGCATGGACCGGTTTTCCCGGTAATCCGTATTTGCG (site GTAGTCGCTTG) | 1.95

Sequence | recombinant UMI read abundance (log10)
GTAGTCGCATGGACCGGTTTTCCCGGTAATCCGTATTTGCG (site GTAGTCTCTCG) | 2
GTAGTCGCATGGACCGGTTTTCCCGGTAATCCGTATTTGCG (site GTAGTGGCTCG) | 0.013
GTAGTCGCATGGACCGGTTTTCCCGGTAATCCGTATTTGCG (site GTAGTTGCTCG) | 0.00541
GTAGTCGCATGGACCGGTTTTCCCGGTAATCCGTATTTGCG (site GTATTCGCTCG) | 0.011
GTAGTCGCATGGACCGGTTTTCCCGGTAATCCGTATTTGCG (site GTCGTCGCTCG) | 0.00603
GTAGTCGCATGGACCGGTTTTCCCGGTAATCCGTATTTGCG (site GTGGTCGCTCG) | 0.0189
GTAGTCGCATGGACCGGTTTTCCCGGTAATCCGTATTTGCG (site GTTGTCGCTCG) | 0.285
GTAGTCGCATGGACCGGTTTTCCCGGTAATCCGTATTTGCG (site TTAGTCGCTCG) | 1.26
GTAGTGACATGGACCGGTTTTCCCGGTAATCCGTATTTGCC (site GTAGTGACTGG) | 2.58
GTATAGGCATGGACCGGTTTTCCCGGTAATCCGTATTTGTA (site GTATAGGCTTA) | 2.22
GTATCTCCATGGACCGGTTTTCCCGGTAATCCGTATTTGAA (site GTATCTCCTTT) | 1.19
GTATGAACATGGACCGGTTTTCCCGGTAATCCGTATTTGAG (site GTATGAACTCT) | 1.87
GTATGCACATGGACCGGTTTTCCCGGTAATCCGTATTTGGA (site GTATGCACTTA) | 0.901
GTATGCACATGGACCGGTTTTCCCGGTAATCCGTATTTGGA (site GTATGCACTTC) | 0.931
GTATGCACATGGACCGGTTTTCCCGGTAATCCGTATTTGGA (site GTATGCACTTG) | 0.783
GTATGCACATGGACCGGTTTTCCCGGTAATCCGTATTTGGA (site GTATGCACTTT) | 0.924
GTATGGCCATGGACCGGTTTTCCCGGTAATCCGTATTTGCA (site GAATGGCCTTG) | 0
GTATGGCCATGGACCGGTTTTCCCGGTAATCCGTATTTGCA (site GCATGGCCTTG) | 0
GTATGGCCATGGACCGGTTTTCCCGGTAATCCGTATTTGCA (site GGATGGCCTTG) | 0
GTATGGCCATGGACCGGTTTTCCCGGTAATCCGTATTTGCA (site GTATGGCCTTG) | 0
GTATGTTCATGGACCGGTTTTCCCGGTAATCCGTATTTGAG (site GTATGTTCTCT) | 2.52
GTATTACCATGGACCGGTTTTCCCGGTAATCCGTATTTGCA (site GTATTACCTTG) | 0
GTATTATCATGGACCGGTTTTCCCGGTAATCCGTATTTGAC (site CTAGTATCTGT) | 1.38
GTATTATCATGGACCGGTTTTCCCGGTAATCCGTATTTGAC (site GTATTATCTGT) | 2.66
GTCAAACCATGGACCGGTTTTCCCGGTAATCCGTATTTGGT (site GACAAACCTAC) | 0
